In patent US8563742B2, “Substituted aminothiazole derivatives, pharmaceutical compositions, and methods of use” (High Point Pharmaceuticals, LLC, priority 2008, dated 2013):
Where two headings read alike, the source gives them in different places. Where no end group is shown, it is not given here.

Columns and labels:
human MC-4R = target: T1, human MC-4R (Homo sapiens, UniProt P32245); experiment: Biological Assay: inhibition of AgRP functional interaction with MC-4R in presence of αMSH (cAMP production); format: cell-based; details: HEK293 cells expressing human MC-4R, AgRP83-132 and αMSH present
T1 construct: expressed in transfected cells
How it was run: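 HEK293 cells stably expressing human MC-4R (20,000/well) in EBSS/HEPES pH 7.4 with 0.5 mM IBMX. Compounds preincubated 30 min at room temperature with human AgRP83-132, then cells added and stimulated with αMSH 30 min at 37 °C. Intracellular cAMP measured after lysis; inhibition of AgRP seen as increased cAMP.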

[1] = rat, in vivo, po, 5 mg/kg; for Plasma:Brain Ratio: male, Sprague Dawley, 2 h
in vivo = details: male, Sprague Dawley, rat, po, 5 mg/kg
[2] = Stability in Liver Microsomes (human); format: in vitro ADME; details: 1 μM, 0.5 mg protein/mL, NADPH, 60 minutes, 37° C., pH 7.4
Procedure: (§1) Various compounds were tested for their stability in human, monkey, dog, rat, and mouse liver microsomes. At a final concentration of 1 μM, compounds were incubated with either human, monkey, dog, rat, or mouse liver microsomes (0.5 mg protein/mL) in the presence of an NADPH-solution for 60 minutes at 37° C., pH 7.4 in phosphate buffer. Incubations were performed in duplicate. Reactions were terminated by the addition of methanol. The incubation solution was vortexed and transferred into a 96-well plate. The plate was sealed and centrifuged at approximately 3500 rpm for approximately 10 minutes. After centrifugation, the plate was loaded into 96-well plate autosampler and analyzed by LC/MS. Values are reported as percent of compound remaining after 1 hour.

[3] = Stability in Liver Microsomes (monkey); format: in vitro ADME; details: 1 μM, 0.5 mg protein/mL, NADPH, 60 minutes, 37° C., pH 7.4
Procedure: as §1

[4] = Stability in Liver Microsomes (dog); format: in vitro ADME; details: 1 μM, 0.5 mg protein/mL, NADPH, 60 minutes, 37° C., pH 7.4
Procedure: as §1

[5] = Stability in Liver Microsomes (rat); format: in vitro ADME; details: 1 μM, 0.5 mg protein/mL, NADPH, 60 minutes, 37° C., pH 7.4
Procedure: as §1

[6] = Stability in Liver Microsomes (mouse); format: in vitro ADME; details: 1 μM, 0.5 mg protein/mL, NADPH, 60 minutes, 37° C., pH 7.4
Procedure: as §1

[7] = Pharmacokinetic screening in rats (plasma and brain); details: rat, 5 mg/kg PO; for concentration at 2 h: male, Sprague Dawley, po, 5 mg/kg, 2 hour time point; for Brain - 24 hours AUC (h * ng/g): 24 hour study
[8] = tested on: adult male Sprague Dawley rats; experiment: Feeding Study (icv AgRP, food intake and body weight); format: in vivo, Rat
Procedure: 27 adult male Sprague Dawley rats (Charles River Laboratories) were implanted with right lateral cerebral ventricular cannulas and allowed to recover for one week. After one week, animals were then randomized into 4 groups that were matched for food intake and body weight: water gavage-icv saline (n=6); Example 7 gavage-icv saline (n=7); water gavage-icv AgRP (n=7); Example 7 gavage-icv AgRP (n=7). Water or Example 7 (30 mg/kg) was administered at by oral gavage followed by icv injection of either saline or 0.2 nmol human AgRP 83-132. AgRP stimulated food intake and body weight gain over the next 24 h compared to saline controls. Both of these effects of AgRP were blocked by injection administration of Example 7.
On day 2 a second dose of Example 7 (30 mg/kg) or water was administered by oral gavage. On day 3, water or Example 7 (30 mg/kg) was administered for the third and final time by oral gavage followed by icv injection of either saline or 0.2 nmol human AgRP83-132. Food intake and body weight were monitored daily and animals were sacrificed on day 5.

[9] = read-out: Average EC50 (nM) in Biological Assay
[10] = plasma, Plasma - 2 hours (ng/mL)
[11] = 0.2 nmol icv, water gavage, next 24 h

T1 sequence (P32245 whole entry): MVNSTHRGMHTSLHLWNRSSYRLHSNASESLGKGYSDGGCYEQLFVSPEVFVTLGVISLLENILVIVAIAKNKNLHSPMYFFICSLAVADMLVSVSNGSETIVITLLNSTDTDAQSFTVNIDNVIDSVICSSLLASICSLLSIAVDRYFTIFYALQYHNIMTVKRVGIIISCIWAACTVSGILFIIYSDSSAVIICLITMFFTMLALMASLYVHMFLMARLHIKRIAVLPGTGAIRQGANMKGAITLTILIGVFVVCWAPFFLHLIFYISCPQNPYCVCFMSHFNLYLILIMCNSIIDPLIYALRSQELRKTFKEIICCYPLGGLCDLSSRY

EC50 (human MC-4R; [9]) [nM] | Plasma:Brain Ratio [1] | concentration at 2 h (in vivo; Brain - 2 hours (ng/g)) [ng/g] | concentration at 2 h (in vivo; Plasma - 2 hours (ng/mL)) [µg/mL] | Stability in Liver Microsomes (% remaining after 1 hour incubation) Human [2] [%] | Stability in Liver Microsomes (% remaining after 1 hour incubation) Monkey [3] [%] | Stability in Liver Microsomes (% remaining after 1 hour incubation) Dog [4] [%] | Stability in Liver Microsomes (% remaining after 1 hour incubation) Rat [5] [%] | Stability in Liver Microsomes (% remaining after 1 hour incubation) Mouse [6] [%] | Compound | also measured
145 |  |  |  | 71 | 70 | 93 | 90 | 99 | Cc1ccc(CN(CCC(=O)O)c2nc([C@H]3CC[C@H](c4ccccc4)CC3)cs2)s1 [Example 38, Sodium; 3-{(5-methyl-thiophen-2-ylmethyl)-[4-(trans-4-phenyl-cyclohexyl)-thiazol-2-yl]-amino}-propionate] | concentration at 2 h [7, 10]: 8.4 µg/mL; Brain - 24 hours AUC (h * ng/g) [7]: ++++ (values above 20,000 h*ng/g)
275 | 4.0:1 | 1910 | 7.62 |  |  |  |  |  | CCc1ccc(CN(CCC(=O)[O-])c2nc(C3CCC(c4ccccc4)CC3)cs2)s1.[Na+] (centres unmarked) [Example 39, Sodium; 3-{(5-ethyl-thiophen-2-ylmethyl)-[4-(4-phenyl-cyclohexyl)-thiazol-2-yl]-amino}-propionate] | 
76 | 1.9:1 | 536 | 1.04 |  |  |  |  |  | Cc1ccc(CN(CCC(=O)[O-])c2nc(C3(C)CCC(C)CC3)cs2)s1.[Na+] (centres unmarked) [Example 46, Sodium; 3-[[4-(1,4-dimethyl-cyclohexyl)-thiazol-2-yl]-(5-methyl-thiophen-2-ylmethyl)-amino]-propionate] | 
 | 1.5:1 | 2110 | 3.08 | 82 | 64 | 95 | 91 | 99 | O=C([O-])CCN(Cc1cccs1)c1nc(-c2ccc(-c3ccccc3)cc2)cs1.[Na+] [Reference Compound B, Sodium 3-[(4-biphenyl-4-yl-thiazol-2-yl)-thiophen-2-ylmethylamino]-propionate, reference compound] | 
 | 2.0:1 | 1240 | 2.46 |  |  |  |  |  | C[C@H]1CC[C@H](Oc2ccc(-c3csc(N(CCC(=O)[O-])Cc4cccs4)n3)cc2)CC1.[Na+] [Reference Compound C, Sodium 3-({4-[4-(trans-4-methyl-cyclohexyloxy)-phenyl]-thiazol-2-yl}-thiophen-2-ylmethyl-amino)-propionate, reference compound] | 

Further lines, the compound ahead of its results:

Compound | EC50 (human MC-4R; [9]) [nM] | Plasma:Brain Ratio [1] | concentration at 2 h (in vivo; Brain - 2 hours (ng/g)) [ng/g] | concentration at 2 h (in vivo; Plasma - 2 hours (ng/mL)) [µg/mL] | Stability in Liver Microsomes (% remaining after 1 hour incubation) Human [2] [%] | Stability in Liver Microsomes (% remaining after 1 hour incubation) Monkey [3] [%] | Stability in Liver Microsomes (% remaining after 1 hour incubation) Dog [4] [%] | Stability in Liver Microsomes (% remaining after 1 hour incubation) Rat [5] [%] | Stability in Liver Microsomes (% remaining after 1 hour incubation) Mouse [6] [%] | also measured
CCc1ccc(CN(CCC(=O)[O-])c2nc(C3CCC(C)CC3)cs2)s1.[Na+] (centres unmarked) [Example 5, Sodium; 3-{(5-ethyl-thiophen-2-ylmethyl)-[4-(4-methyl-cyclohexyl)-thiazol-2-yl]-amino}-propionate] | 241 | 2.6:1 | 1460 | 3.78 |  |  |  |  |  | 
CCc1ccc(CN(CCC(=O)[O-])c2nc([C@H]3CC[C@H](C(C)(C)C)CC3)cs2)s1.[Na+] [Example 8, Sodium; 3-[[4-(trans-4-tert-butyl-cyclohexyl)-thiazol-2-yl]-(5-ethyl-thiophen-2-ylmethyl)-amino]-propionate] | 210 | 3.3:1 | 1580 | 5.16 | 93 | 84 | 91 | 88 | 88 | 
Cc1ccc(CN(CCC(=O)[O-])c2nc([C@H]3CC[C@H](C(C)C)CC3)cs2)s1.[Na+] [Example 9, Sodium; 3-[[4-(4-trans-isopropyl-cyclohexyl)-thiazol-2-yl]-(5-methyl-thiophen-2-ylmethyl)-amino]-propionate] | 274 |  |  |  | 82 | 74 | 92 | 66 | 69 | Plasma - 2 hours [1]: 3062 ng/mL
Cc1cc(CN(CCC(=O)O)c2nc(C3CCC(C(C)C)CC3)cs2)c(C)s1 (centres unmarked) [Example 26, 3-{(2,5-Dimethyl-thiophen-3-ylmethyl)-[4-(4-isopropyl-cyclohexyl)-thiazol-2-yl]-amino}-propionic acid] |  |  |  |  | 79 | 67 | 72 | 66 | 71 | EC50 (human MC-4R; Average EC50 (nM) in Biological Assay): 276 nM; concentration at 2 h ([7]; brain, Brain - 2 hours (ng/g)): 942 ng/g; concentration at 2 h [7, 10]: 6.26 µg/mL; Brain - 24 hours AUC (h * ng/g) [7]: +++ (values between 20,000 and 10,000 h*ng/g)
AgRP: AgRP83-132 (human, Phoenix Pharma, cat no. 003-53), Agouti related protein fragment given icv (SSRRCVRLHESCLGQQVPCCDPCATCYCRFFNAFCYCRKLGTAMNPCSRT; ends and bridges not checked; cysteine pairing not given here; UniProt O00253 83-132, looked up, fragment) [reference compound] |  |  |  |  |  |  |  |  |  | cumulative weight gain over the entire period, icv AGRP + H2O ([8]; 0.2 nmol icv days 1 and 3, water gavage, to day 5): above 30 grams; body weight gain after icv AgRP compared to saline controls [8, 11]: stimulated; food intake after icv AgRP compared to saline controls [8, 11]: stimulated
